{
  "source": "paper PMC8509676",
  "about": "“Residual Helicity at the Active Site of the Histidine Phosphocarrier, HPr, Modulates Binding Affinity to Its Natural Partners” (International Journal of Molecular Sciences, 2021)",
  "key": {"Rsd^ec [1]": {"target": "T1, Rsd^ec (Escherichia coli, UniProt P0AFX4)", "T1 construct": "His-tag; made in house; host or cells: E. coli C41", "T1 sequence (P0AFX4 whole entry)": "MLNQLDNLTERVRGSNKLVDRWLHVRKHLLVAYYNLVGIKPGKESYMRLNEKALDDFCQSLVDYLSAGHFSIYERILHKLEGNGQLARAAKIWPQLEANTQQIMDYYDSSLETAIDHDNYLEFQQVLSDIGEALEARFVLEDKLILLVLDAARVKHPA", "test": "Isothermal titration calorimetry (ITC), peptide/Rsd^ec binding", "details": "ITC, 25 °C, 50 mM Tris pH 7.0", "protocol": "The experimental set-up and data processing of ITC experiments has been described previously. Rsd^ec or EIN^sc (at 10–20 µM) were injected into the cell, and the peptides in the syringe (100–200 µM) in 50 mM of Tris buffer, pH 7.0. The temperature for all the experiments was 25 °C. Typically, each calorimetric titration consisted of performing 19 injections with 2 μL volume, with a time spacing of 150 s, while stirring at 750 rpm in an Auto-iTC200 high-sensitivity microcalorimeter (MicroCal, Malvern-Panalytical, Malvern, UK). The results were analysed by applying a model that considered a single binding site (assuming a 1:1 stoichiometry) for the peptide/EIN^sc or peptide/Rsd^ec interaction using a nonlinear least-squares regression analysis in Origin 7.0 (OriginLab, Northampton, MA, USA) with user-defined fitting routines."}, "Rsd^ec [2]": {"target": "T1, Rsd^ec", "test": "Fluorescence titration, peptide/Rsd^ec binding", "protocol": "Spectra were collected at 25 °C on a Cary spectrofluorometer (Agilent, Madrid, Spain), with a Peltier temperature controller. The samples were prepared the day before and left overnight at 5 °C. Before measurements, the samples were incubated for 1 h at 25 °C. A quartz cell with a 1 cm path length (Hellma, Kruibeke, Belgium) was used. In all the experiments, the slit widths were equal to 5 nm for both the excitation and emission lights. Protein samples were excited at either 280 or 295 nm. The experiments were performed between 300 and 400 nm. The signal was acquired for 1 s, and the increment of wavelength was set to 1 nm. Appropriate blank corrections were made in all spectra. For the binding experiments, 3 µM of either protein (Rsd^ec or EIN^sc) and 15 µM of the corresponding peptide were mixed. The experiments in aqueous solution were acquired in Tris buffer (50 mM, pH 7.0).\nFor the titration between either of the two proteins (Rsd^ec or EIN^sc) and the corresponding peptide, increasing amounts of the latter, in a concentration range of 0 to 30 µM, were added to a solution with a fixed concentration of each protein (3 µM). The experimental set-up was identical to that described above, including preparation of the samples the day before and their storage overnight at 5 °C. Before measurements, the samples were incubated for 1 h at 25 °C. The fluorescence of a blank solution containing only the corresponding peptide was subtracted for each data point. […] The Kd was determined by following the fluorescence at selected wavelengths and fitting experimental data to Equation (1). […] At all used concentrations, the fluorescence was corrected by the inner-filter effects."}, "[3]": {"test": "TFE titration followed by far-UV CD (disordered-helical two-state equilibrium)", "type": "physicochemical", "protocol": "For experiments in the presence of TFE, the same set of experimental parameters was used. Cosolvent concentrations were indicated in percentage of volume (%). […] The peptide concentration for these experiments was 20 µM."}, "[4]": {"test": "Translational diffusion NMR (DOSY)", "type": "physicochemical", "protocol": "(b) Translational diffusion NMR (DOSY): Peptide concentrations were the same as those used in the 1D-^1H-NMR spectra. Translational self-diffusion measurements were performed with the pulsed-gradient spin-echo sequence in the presence of 100% D2O. The following relationship existed between the translational self-diffusion coefficient, D, and the delays used during experiment acquisition:(2) I/I0=−exp(DγH2δ^2G^2(Δ−δ/3−τ/2)) where I is the peak intensity of a particular resonance (or a group of them) at any gradient strength; I0 is the maximum peak intensity of the same resonance(s) at the smallest gradient strength (that is, at 2% of the total power of the gradient coil); D is the translational self-diffusion constant (in cm^2 s^−1); δ is the duration (in s) of the gradient; G is the gradient strength (in T cm^−1); ∆ is the time (in s) between the gradients; γH is the gyromagnetic constant of the proton (in rad s^−1 T^−1); and τ is the recovery delay between the bipolar gradients (100 µs in our experiments). The gradient strength (G) was varied in 16 lineal steps, between 2 and 95% of the total power of the gradient coil of the probe. The gradient strength was calibrated by using the value of D for the residual proton water line in a sample containing 100% D2O placed in a 5 mm tube [42]. Data were plotted as I/I0 versus G^2, and the exponential factor of the curve was:(3) DγH2δ^2(Δ−δ/3−τ/2) from which D can be obtained. The duration of the gradient (δ) was 2.25 ms, and the time between the two gradients (∆) was set to 200 ms. The signal from the methyl groups between 1.1 and 0.70 ppm were used for integration of the intensity. A final concentration of 1% of dioxane was added to each peptide; the hydrodynamic radius, Rh, of each peptide was obtained for comparison by assuming that the Rh of dioxane was 2.12 Å [42]. The DOSY experiment was repeated twice with fresh samples for each peptide."}, "[5]": {"details": "TFE titration by far-UV CD, 20 µM peptide, two-state fit, fitting errors"}},
  "note": "pKd: −log10 of the molar value.",
  "data": [
    {"substance": "Ac-GWAEGLHARPASIFVRAATATG-NH2 [Wild-type]", "values": [
      {"measurement": "ΔH, Rsd^ec", "setting": "Rsd^ec [1]", "value": "1.3 ± 0.4", "unit": "kcal/mol"},
      {"measurement": "pKd", "setting": "Rsd^ec [2]", "value": 5.30},
      {"measurement": "[TFE]1/2", "setting": "[3]; [5]", "value": "23.2 ± 0.5 % (v/v)"},
      {"measurement": "m", "setting": "[3]; [5]", "value": "166 ± 23 cal/mol (% (v/v))"},
      {"measurement": "percentage of helical population (in parentheses)", "setting": "[3]; from ∆G^water assuming a two-state conformational equilibrium", "value": 0.10, "unit": "%"},
      {"measurement": "∆G^water", "setting": "[3]; product of m- and [TFE]1/2 values, error propagation", "value": "3.8 ± 0.5", "unit": "kcal/mol"},
      {"measurement": "D (translational diffusion coefficient)", "setting": "[4]; DOSY, 10 °C, 100% D2O, 70-120 µM peptide, fitting errors, repeated twice", "value": "1.95 ± 0.03", "unit": "cm^2 s^−1 × 10^6"},
      {"measurement": "Rh (in parentheses, from DOSY)", "setting": "[4]; from comparison with the Rh of dioxane (2.12 Å)", "value": "11 ± 1", "unit": "Å"}
    ]}
  ]
}
